Measurements: the NIST ThermoML archive (doi:10.1021/je301283e)
± gives the expanded uncertainty stated by the source.

Settings: Liquid, Vibrating tube method

CCCCCCCCCCCCCCCC [hexadecane]
mass density [kg/m3]
Settings | 313.15 K | 333.15 K | 353.15 K | 373.15 K | 393.15 K
340 kPa | 759.52 ± 1.4 | 746.8 ± 1.4 | 736.2 ± 1.4 | 723.1 ± 1.4 | 710 ± 1.4
690 kPa | 759.83 ± 1.4 | 747.1 ± 1.4 | 736.4 ± 1.4 | 723.3 ± 1.4 | 710.3 ± 1.4
1030 kPa | 760.08 ± 1.4 | 747.4 ± 1.4 | 736.6 ± 1.4 | 723.6 ± 1.4 | 710.6 ± 1.4
1380 kPa | 760.33 ± 1.4 | 747.7 ± 1.4 | 736.9 ± 1.4 | 723.8 ± 1.4 | 710.9 ± 1.4
1720 kPa | 760.65 ± 1.4 | 748 ± 1.4 | 737.1 ± 1.4 | 724 ± 1.4 | 711.1 ± 1.4
2070 kPa | 760.88 ± 1.4 | 748.2 ± 1.4 | 737.4 ± 1.4 | 724.3 ± 1.4 | 711.4 ± 1.4
2410 kPa | 761.08 ± 1.4 | 748.5 ± 1.4 | 737.7 ± 1.4 | 724.6 ± 1.4 | 711.7 ± 1.4
2760 kPa | 761.33 ± 1.4 | 748.7 ± 1.4 | 738 ± 1.4 | 724.9 ± 1.4 | 712 ± 1.4
3100 kPa | 761.65 ± 1.4 | 749 ± 1.4 | 738.3 ± 1.4 | 725.1 ± 1.4 | 712.2 ± 1.4
3450 kPa | 761.83 ± 1.4 | 749.2 ± 1.4 | 738.7 ± 1.4 | 725.4 ± 1.4 | 712.3 ± 1.4
3800 kPa | 762.08 ± 1.4 | 749.5 ± 1.4 | 739.1 ± 1.4 | 725.6 ± 1.4 | 712.5 ± 1.4
4140 kPa | 762.33 ± 1.4 | 749.8 ± 1.4 | 739.3 ± 1.4 | 725.9 ± 1.4 | 712.8 ± 1.4
4480 kPa | 762.49 ± 1.4 | 750 ± 1.4 | 739.5 ± 1.4 | 726.1 ± 1.4 | 713 ± 1.4
4830 kPa | 762.83 ± 1.4 | 750.2 ± 1.4 | 739.8 ± 1.4 | 726.4 ± 1.4 | 713.3 ± 1.4
5170 kPa | 763.08 ± 1.4 | 750.5 ± 1.4 | 740 ± 1.4 | 726.7 ± 1.4 | 713.5 ± 1.4
5510 kPa | 763.33 ± 1.4 | 750.7 ± 1.4 | 740.2 ± 1.4 | 726.9 ± 1.4 | 713.8 ± 1.4
5860 kPa | 763.58 ± 1.4 | 751 ± 1.4 | 740.4 ± 1.4 | 727.2 ± 1.4 | 714 ± 1.4
6200 kPa | 763.83 ± 1.4 | 751.2 ± 1.4 | 740.5 ± 1.4 | 727.5 ± 1.4 | 714.3 ± 1.4
6550 kPa | 764.08 ± 1.4 | 751.4 ± 1.4 | 740.7 ± 1.4 | 727.8 ± 1.4 | 714.6 ± 1.4
6890 kPa | 764.33 ± 1.4 | 751.6 ± 1.4 | 741 ± 1.4 | 728.1 ± 1.4 | 714.9 ± 1.4
7240 kPa | 764.65 ± 1.4 | 752 ± 1.4 | 741.2 ± 1.4 | 728.4 ± 1.4 | 715.1 ± 1.4
7580 kPa | 764.83 ± 1.4 | 752.4 ± 1.4 | 741.5 ± 1.4 | 728.5 ± 1.4 | 715.3 ± 1.4
7930 kPa | 765.08 ± 1.4 | 752.6 ± 1.4 | 741.7 ± 1.4 | 728.9 ± 1.4 | 715.5 ± 1.4
8270 kPa | 765.33 ± 1.4 | 752.8 ± 1.4 | 742 ± 1.4 | 729.4 ± 1.4 | 715.8 ± 1.4
8620 kPa | 765.58 ± 1.4 | 753 ± 1.4 | 742.2 ± 1.4 | 729.9 ± 1.4 | 716 ± 1.4
8960 kPa | 765.74 ± 1.4 | 753.2 ± 1.4 | 742.5 ± 1.4 | 730.2 ± 1.4 | 716.3 ± 1.4
9310 kPa | 765.99 ± 1.4 | 753.5 ± 1.4 | 742.7 ± 1.4 | 730.6 ± 1.4 | 716.6 ± 1.4
9650 kPa | 766.24 ± 1.4 | 753.8 ± 1.4 | 742.9 ± 1.4 | 730.8 ± 1.4 | 716.8 ± 1.4
10000 kPa | 766.49 ± 1.4 | 754 ± 1.4 | 743.1 ± 1.4 | 731 ± 1.4 | 717.1 ± 1.4
10340 kPa | 766.74 ± 1.4 | 754.3 ± 1.4 | 743.5 ± 1.4 | 731.4 ± 1.4 | 717.4 ± 1.4
10690 kPa | 766.98 ± 1.4 | 754.5 ± 1.4 | 743.9 ± 1.4 | 731.6 ± 1.4 | 717.6 ± 1.4
11030 kPa | 767.22 ± 1.4 | 754.8 ± 1.4 | 744.1 ± 1.4 | 731.9 ± 1.4 | 717.9 ± 1.4
11380 kPa | 767.48 ± 1.4 | 755 ± 1.4 | 744.3 ± 1.4 | 732.1 ± 1.4 | 718.1 ± 1.4
